{"source": "patent US10314775B2", "about": "“Methods of increasing hair growth and improving hair appearance” (MyMD Pharmaceuticals, Inc., priority 2016, dated 2019)", "key": {"MAO-A": {"biological_target": "T1, MAO-A (Homo sapiens, UniProt P21397)", "T1 construct": "purchased", "T1 sequence (P21397 1-527)": "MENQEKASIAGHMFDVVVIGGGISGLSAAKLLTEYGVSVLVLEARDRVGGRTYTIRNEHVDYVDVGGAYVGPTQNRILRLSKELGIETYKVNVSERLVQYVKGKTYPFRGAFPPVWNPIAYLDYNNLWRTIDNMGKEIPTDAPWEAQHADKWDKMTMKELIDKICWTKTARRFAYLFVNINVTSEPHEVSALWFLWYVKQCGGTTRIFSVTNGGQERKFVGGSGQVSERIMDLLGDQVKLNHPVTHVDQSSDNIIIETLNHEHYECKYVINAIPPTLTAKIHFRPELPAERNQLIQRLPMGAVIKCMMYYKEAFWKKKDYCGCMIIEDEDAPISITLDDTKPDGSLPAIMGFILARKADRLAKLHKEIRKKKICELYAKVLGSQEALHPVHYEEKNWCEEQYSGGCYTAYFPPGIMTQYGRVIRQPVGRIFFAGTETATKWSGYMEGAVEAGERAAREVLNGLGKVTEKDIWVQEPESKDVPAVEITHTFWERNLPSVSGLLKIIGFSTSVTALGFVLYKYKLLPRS", "assay": "MAO-Glo luminescent assay, MAO-A inhibition", "type": "biochemical", "details": "FIG. 1", "source_text": "(§1) This example describes experiments for determining monoamine oxidase (MAO) inhibition for isomyosmine and other alkaloids. MAOs are enzymes located on the outer membrane of mitochondria and are involved in the catabolism of monoamine neurotransmitters. There are two well-characterized isoenzymes: MAO-A, which predominantly catabolizes serotonin and norepinephrine, and MAO-B, which preferentially catabolizes benzylamine and phenylethylamine. Dopamine and tyramine are metabolized by both isoforms.\n(§2) To detect the activity of MAO, a luminescent method (MAO-Glo Assay kit, from Promega, Cat # V1401) was used. In this method, a MAO substrate (a derivative of beetle luciferin provided in the kit) is mixed with the compound to be tested (in this case, myosmine and control compounds). Then, the MAO enzymes (either A or B, purchased separately) are added to the mixture and incubated with the reaction for 1 hour at room temperature. The MAO enzymes, if not inhibited by the test compound, will convert the substrate into methyl ester luciferin. Finally, a luciferin detection reagent (provided by the kit) is added (20 minutes at room temperature) to stop the MAO reaction and convert methyl ester luciferin into D-luciferin. […] The luminescent signal is measured and recorded using a luminometer.\nAnatabine was obtained from Emerson Resources, Norristown, Pa."}, "MAO-B": {"biological_target": "T2, MAO-B (Homo sapiens, UniProt P27338)", "T2 construct": "purchased", "T2 sequence (P27338 1-520)": "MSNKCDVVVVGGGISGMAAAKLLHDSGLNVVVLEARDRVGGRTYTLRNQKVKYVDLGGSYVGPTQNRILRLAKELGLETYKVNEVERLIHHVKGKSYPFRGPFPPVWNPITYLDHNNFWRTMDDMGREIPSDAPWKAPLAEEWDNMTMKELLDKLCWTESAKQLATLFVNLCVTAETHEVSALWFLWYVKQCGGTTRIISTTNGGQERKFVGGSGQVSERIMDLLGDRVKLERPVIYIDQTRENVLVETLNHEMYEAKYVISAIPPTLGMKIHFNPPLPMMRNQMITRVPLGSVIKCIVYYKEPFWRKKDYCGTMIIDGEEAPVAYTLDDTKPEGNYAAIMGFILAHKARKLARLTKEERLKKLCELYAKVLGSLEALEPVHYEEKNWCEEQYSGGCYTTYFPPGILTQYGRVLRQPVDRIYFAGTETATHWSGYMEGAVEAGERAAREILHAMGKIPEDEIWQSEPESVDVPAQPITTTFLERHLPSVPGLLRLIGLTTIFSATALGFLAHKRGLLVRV", "assay": "MAO-Glo luminescent assay, MAO-B inhibition", "type": "biochemical", "details": "FIG. 2; compared with myosmine, anatabine, anabasine, nornicotine", "source_text": "as §1\nas §2, with “luminometer. […]” for “luminometer.”"}, "male-pattern baldness": {"tested_on": "male-pattern baldness", "assay": "Oral treatment of a person with male-pattern baldness (scalp photographs)", "type": "in vivo, human", "details": "oral 60 mg/day, photographs after three weeks and 90 days of treatment (FIG. 3-5)", "method": "A person and approximately 75 kg in weight was experiencing male-pattern baldness. The individual was orally administered isomyosmine at a dosage of 60 mg/day over the course of three weeks. FIG. 3 is a photograph of the scalp of the individual before treatment. FIG. 4 is a photograph of the scalp of the individual after three weeks of treatment (and a haircut). FIG. 5 is a photograph of the scalp of the individual after 90 days of treatment."}}, "data": [{"smiles": "C1=NC(c2cccnc2)CC1", "note": "(stereo not shown) [isomyosmine, 3-(3,4-dihydro-2H-pyrrol-2-yl)-pyridine]", "values": [{"measurement": "inhibition at 2000 µM", "setting": "MAO-A; 2 mM concentration (2,000 micromolar), read-out: inhibition of the enzymatic activity of MAO-A", "value": "~50", "unit": "%"}, {"measurement": "inhibiting the enzymatic activity of MAO-A, comparison of curves", "setting": "MAO-A; compared with myosmine, anatabine, anabasine, nornicotine, clorgyline positive control", "value": "the most potent of the five"}, {"measurement": "inhibiting the activity of MAO-B, comparison of curves", "setting": "MAO-B", "value": "the most potent among the five alkaloids tested"}, {"measurement": "hair growth on the scalp", "setting": "male-pattern baldness", "value": "significant new growth of healthy, dark-colored hair on the scalp"}]}]}
